Measured values: patent US20230382894A1, “CCR4 ANTAGONISTS” (CHEMOCENTRYX, INC., priority 2022, published 2023)

Assays:
CCR4 [1] = biological target: T1, CCR4 (Homo sapiens, UniProt P51679); test: CEM cell chemotaxis (migration) assay to CCL22 (MDC) in 100% Fetal Bovine Serum (FBS); format: cell-based; conditions: CEM cells in 100% FBS with 1% HEPEs; recombinant human CCL22 0.1 nM; 37° C. 60 minutes
T1 construct: CEM Cells Endogenous Express CCR4; endogenous in cells; host or cells: CEM cells
T1 sequence (P51679 1-360): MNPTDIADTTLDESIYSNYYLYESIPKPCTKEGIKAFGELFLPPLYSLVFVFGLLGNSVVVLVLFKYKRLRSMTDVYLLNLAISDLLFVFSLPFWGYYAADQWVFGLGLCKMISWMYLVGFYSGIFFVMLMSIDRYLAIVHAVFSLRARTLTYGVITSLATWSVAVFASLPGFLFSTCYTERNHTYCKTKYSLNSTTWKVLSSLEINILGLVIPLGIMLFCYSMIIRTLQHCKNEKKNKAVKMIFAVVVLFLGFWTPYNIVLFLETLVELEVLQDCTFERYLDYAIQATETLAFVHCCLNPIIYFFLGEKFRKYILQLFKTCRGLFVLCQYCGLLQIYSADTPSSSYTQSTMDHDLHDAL
In short: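 Endogenously CCR4-expressing CEM cells in 100% FBS with 1% HEPES were preincubated with serially diluted compound (top final 10 μM) and allowed to migrate through 5 μm polycarbonate membranes toward 0.1 nM human CCL22 (EC50) for 60 min at 37 °C. Migrated cells were quantified by CyQUANT fluorescence.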

CCR4 [2] = biological target: T1, CCR4; test: CEM cell chemotaxis (migration) assay to CCL22 (MDC) in HBSS buffer with 0.1% BSA; format: cell-based; conditions: CEM cells in HBSS with 0.1% BSA; recombinant human CCL22 0.1 nM; 37° C. 60 minutes
Description: CEM Cells Endogenous Express CCR4
A chemotaxis assay can be used to determine the efficacy of potential receptor antagonists at blocking the migration mediated through chemokine receptors, such as CCR4. This assay is routinely performed using the ChemoTX® microchamber system with a 5 μm pore-sized polycarbonate membrane.
HBSS: CEM Cells are collected by centrifugation at 400×g at room temperature, then suspended at 5 million/ml in Hanks' Balanced Salt Solution (HBSS) buffer with 0.1% BSA. The compound being tested is serially diluted from a maximum final concentration of 10 μM (or an equivalent volume of its solvent (DMSO)) and is then added to the cell/buffer mixture. Separately, recombinant human CCL22 (MDC) at its EC50 concentration (0.1 nM) is placed in the lower wells of the ChemoTX® plate. The 5-μm (pore size) polycarbonate membrane was placed onto the plate, and 20 μL of the cell/compound mixture is transferred onto each well of the membrane. The plates are incubated at 37° C. for 60 minutes, after which the polycarbonate membranes are removed and 5 μl of the DNA-intercalating dye CyQUANT (Invitrogen, Carlsbad, CA) is added to the lower wells. The amount of fluorescence, corresponding to the number of migrated cells, is measured using a Spectrafluor Plus plate reader (TECAN, San Jose, CA).

Row | Structure (SMILES) | IC50 (CCR4 [1]) | IC50 (CCR4 [2])
1 | Cc1nc(N2CCN(C(=O)[C@H]3CCC(=O)N3)CC2)nc(N[C@H](C)c2ccc(Cl)cc2Cl)c1Cl [Example 1.113] | < 100 nM | < 100 nM
2 | C[C@@H](Nc1nc(N2CCC(NC(=O)C3CCOCC3)CC2)ncc1Cl)c1ccc(Cl)cc1Cl [Example 1.130] | > 1000 nM | 100 to 1000 nM
3 | C[C@@H](Nc1nc(N2CCC(NC(=O)[C@@H]3CNCCO3)CC2)ncc1Cl)c1ccc(Cl)cc1Cl [Example 1.131] | > 1000 nM | 100 to 1000 nM
4 | C[C@@H](Nc1nc(N2CCC(N3CC(=O)NC3=O)CC2)ncc1Cl)c1ccc(Cl)cc1Cl [Example 1.132] | > 1000 nM | > 1000 nM
5 | C[C@@H](Nc1nc(N2CCC(C(=O)N3CC[C@H](O)[C@@H](N(C)C)C3)CC2)ncc1Cl)c1ccc(Cl)cc1Cl [Example 1.133] | > 1000 nM | 100 to 1000 nM
6 | C[C@@H](Nc1nc(N2CCN(C(=O)[C@H]3CCN(C(N)=O)C3)CC2)ncc1Cl)c1ccc(Cl)cc1Cl [Example 1.134] | < 100 nM | < 100 nM
7 | C[C@@H](Nc1nc(N2CCN(C(=O)[C@H]3COCCN3)CC2)ncc1Cl)c1ccc(Cl)cc1Cl [Example 1.135] | < 100 nM | < 100 nM
8 | C[C@@H](Nc1nc(N2CCC(NC(=O)[C@H]3CC(F)(F)CN3)CC2)ncc1Cl)c1ccc(Cl)cc1Cl [Example 1.136] | > 1000 nM | > 1000 nM
9 | C[C@@H](Nc1nc(N2CCN(C(=O)[C@H]3CCC(=O)N3)CC2)ncc1Cl)c1ccc(Cl)cc1Cl [Example 1.148] | < 100 nM | < 100 nM
10 | C[C@@H](Nc1nc(N2CCN(C(=O)[C@H]3CCNC3)CC2)ncc1Cl)c1ccc(Cl)cc1Cl [Example 1.150] | < 100 nM | < 100 nM
11 | C[C@@H](Nc1nc(N2CCN(C(=O)[C@H]3CCCN3)[C@H](C(=O)O)C2)ncc1Cl)c1ccc(Cl)cc1Cl [Example 1.151] | < 100 nM | < 100 nM
12 | C[C@@H](Nc1nc(N2CCN(C(=O)[C@H]3CCCN3C3CC(C)(C(=O)O)C3)CC2)ncc1Cl)c1ccc(Cl)cc1Cl (some centres unmarked) [Example 1.152] | > 1000 nM | 100 to 1000 nM
13 | C[C@@H](Nc1nc(N2CCN(C3CN[C@H](C(=O)O)C3)CC2)ncc1Cl)c1ccc(Cl)cc1Cl (some centres unmarked) [Example 1.153] | > 1000 nM | > 1000 nM
14 | C[C@@H](Nc1nc(N2CCN(C(=O)[C@@H]3NC(=O)[C@@H]4C[C@@H]43)CC2)ncc1Cl)c1ccc(Cl)cc1Cl [Example 1.251] | < 100 nM | < 100 nM
15 | C[C@H](Nc1nc(N2CCN(C(=O)[C@H]3CCC(=O)N3)CC2)ncc1Cl)c1ccc(Cl)cc1Cl [Example 1.252] | > 1000 nM | > 1000 nM
16 | C[C@H](Nc1nc(N2CCN(C(=O)[C@@H]3CCC(=O)N3)CC2)ncc1Cl)c1ccc(Cl)cc1Cl [Example 1.253] | > 1000 nM | > 1000 nM
17 | C[C@@H](Nc1nc(N2CC[C@H](NC(=O)[C@@H]3CCC(=O)N3)[C@@H](O)C2)ncc1Cl)c1ccc(Cl)cc1Cl [Example 1.254] | < 100 nM | > 1000 nM
18 | C[C@@H](Nc1nc(N2CCN(C(=O)[C@H]3CCC(=O)N3)CC2)ncc1Cl)c1ccccn1 [Example 1.256] | > 1000 nM | > 1000 nM
19 | Cc1nc(N2CCN(C(=O)[C@H]3CCC(=O)N3)CC2)nc(N[C@H](C)c2cc(F)c(Cl)cc2Cl)c1Cl [Example 1.258] | < 100 nM | < 100 nM
